Laboratory results as given in ChEMBL document CHEMBL5726543, “Glucocerebrosidase modulators and uses thereof” (2017).

Biological target: T1, Lysosomal acid glucosylceramidase (Homo sapiens, UniProt P04062)
T1 sequence (P04062 whole entry): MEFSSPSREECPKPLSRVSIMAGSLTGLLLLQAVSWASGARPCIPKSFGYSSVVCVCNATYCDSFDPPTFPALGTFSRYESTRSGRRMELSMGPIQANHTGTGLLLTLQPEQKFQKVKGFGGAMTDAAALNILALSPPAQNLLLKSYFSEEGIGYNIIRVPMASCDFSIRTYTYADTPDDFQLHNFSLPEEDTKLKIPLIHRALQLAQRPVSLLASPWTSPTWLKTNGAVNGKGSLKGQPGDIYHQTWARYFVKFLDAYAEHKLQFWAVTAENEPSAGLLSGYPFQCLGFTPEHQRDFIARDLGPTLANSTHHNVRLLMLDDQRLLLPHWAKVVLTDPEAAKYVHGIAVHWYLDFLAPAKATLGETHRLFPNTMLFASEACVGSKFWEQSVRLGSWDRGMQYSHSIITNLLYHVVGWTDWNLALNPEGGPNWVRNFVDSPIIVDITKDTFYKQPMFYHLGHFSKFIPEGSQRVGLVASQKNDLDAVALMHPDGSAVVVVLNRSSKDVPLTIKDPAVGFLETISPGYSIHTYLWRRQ

- Ki: 1400 nM
Structure (SMILES): CCCC1(CCC)NC[C@@H](O)[C@H](O)[C@H]1CO
